Drawing on patent US20250129104A1, “7H-PYRROLO[2,3-D]PYRIMIDINES AND PREPARATION AND USES THEREOF” (BioSplice Therapeutics, Inc., priority 2021, published 2025), this text covers EC50 for 34 compounds.

As a reminder, the EC50 is the concentration at which the effect is half-maximal.

This assay addresses recombinant DYRK1A kinase (Homo sapiens (Human), UniProt Q13627). Nature of the assay: DYRK1A kinase assay (Ser/Thr 18 peptide Z-lyte FRET assay). The class given is biochemical. Particulars: DYRK1A kinase activity; 15 μM ATP, 1 h room temperature; method text calls the value IC50. Summed up: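 FRET Z-lyte read-out (coumarin/fluorescein ratio, % phosphorylation) after 1 h development; IC50 from non-linear curve fit. Reaction: 0.25 μg/mL recombinant human DYRK1A, Ser/Thr 18 peptide 4 μM, ATP 15 μM, compound in 11-point 1:3 series from 10 μM, 1 h, room temperature, duplicate wells.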
On to `FC(F)(F)CNc1ncc2c(-c3ccc4nccn4n3)c[nH]c2n1` [Compound 911, 5-(Imidazo[1,2-b]pyridazin-6-yl)-N-(2,2,2-trifluoroethyl)-7H-pyrrolo[2,3-d]pyrimidin-2-amine], for which the concentration for a half-maximal effect (EC50) was 9.6 nM. Turning to `C[C@@H](Nc1ncc2c(-c3ccc4nccn4n3)c[nH]c2n1)C1CC1` [Compound 918, (R)—N-(1-Cyclopropylethyl)-5-(imidazo[1,2-b]pyridazin-6-yl)-7H-pyrrolo [2,3-d]pyrimidin-2-amine], the EC50 is 3.4 nM. Then `c1cn2nc(-c3c[nH]c4nc(NC5CCOCC5)ncc34)ccc2n1` [Compound 930, 5-(Imidazo[1,2-b]pyridazin-6-yl)-N-(tetrahydro-2H-pyran-4-yl)-7H-pyrrolo[2,3-d]pyrimidin-2-amine], with 4 nM.

In the case of `CC(C)(F)CNc1ncc2c(-c3ccc4ncc(Cl)n4n3)c[nH]c2n1` [Compound 952, 5-(3-chloroimidazo[1,2-b]pyridazin-6-yl)-N-(2-fluoro-2-methylpropyl)-7H-pyrrolo[2,3-d]pyrimidin-2-amine], the EC50 is 2.7 nM. Then `Cc1cn2nc(-c3c[nH]c4nc(NC(C)C)ncc34)ccc2n1` [Compound 991, N-Isopropyl-5-(2-methylimidazo[1,2-b]pyridazin-6-yl)-7H-pyrrolo[2,3-d]pyrimidin-2-amine], with 25.7 nM; and `Cc1cn2nc(-c3c[nH]c4nc(NCC(C)(C)F)ncc34)ccc2n1` [Compound 995, N-(2-Fluoro-2-methylpropyl)-5-(2-methylimidazo[1,2-b]pyridazin-6-yl)-7H-pyrrolo[2,3-d]pyrimidin-2-amine], with 9.3 nM. `Cc1cnc2ccc(-c3c[nH]c4nc(NC5CCN(C)CC5)ncc34)nn12` [Compound 1057, 5-(3-Methylimidazo[1,2-b]pyridazin-6-yl)-N-(1-methylpiperidin-4-yl)-7H-pyrrolo[2,3-d]pyrimidin-2-amine]: the EC50 was 9.8 nM. Then `CC(C)(F)CNc1ncc2c(-c3ccc4ncc(C(F)F)n4n3)c[nH]c2n1` [Compound 1081, 5-(3-(Difluoromethyl)imidazo[1,2-b]pyridazin-6-yl)-N-(2-fluoro-2-methylpropyl)-7H-pyrrolo[2,3-d]pyrimidin-2-amine], with 2.6 nM; and `CC(C)(F)CNc1ncc2c(-c3ccn4nccc4c3)c[nH]c2n1` [Compound 1125, N-(2-Fluoro-2-methylpropyl)-5-(pyrazolo[1,5-a]pyridin-5-yl)-7H-pyrrolo [2,3-d]pyrimidin-2-amine], with 4.6 nM; and `C[C@@H](Nc1ncc2c(-c3ccn4nccc4c3)c[nH]c2n1)C(F)(F)F` [Compound 1128, (R)-5-(Pyrazolo[1,5-a]pyridin-5-yl)-N-(1,1,1-trifluoropropan-2-yl)-7H-pyrrolo[2,3-d]pyrimidin-2-amine], with 2.4 nM. Then `CN1CCC(Nc2ncc3c(-c4ccn5nccc5c4)c[nH]c3n2)CC1` [Compound 1146, N-(1-Methylpiperidin-4-yl)-5-(pyrazolo[1,5-a]pyridin-5-yl)-7H-pyrrolo[2,3-d]pyrimidin-2-amine], with 28.5 nM; and `CC(C)(F)CNc1ncc2c(-c3ccn4ncc(F)c4c3)c[nH]c2n1` [Compound 1157, N-(2-Fluoro-2-methylpropyl)-5-(3-fluoropyrazolo[1,5-a]pyridin-5-yl)-7H-pyrrolo[2,3-d]pyrimidin-2-amine], with 68.9 nM. Then `CN1CCC(Nc2ncc3c(-c4ccn5ncc(-c6cnn(C)c6)c5c4)c[nH]c3n2)CC1` [Compound 1190, 5-(3-(1-Methyl-1H-pyrazol-4-yl)pyrazolo[1,5-a]pyridin-5-yl)-N-(1-methylpiperidin-4-yl)-7H-pyrrolo[2,3-d]pyrimidin-2-amine], with 3 nM. For `O=C(c1cnn2ccc(-c3c[nH]c4nc(C5CCC5)ncc34)cc12)N1CCCCC1` [Compound 1205, (5-(2-Cyclobutyl-7H-pyrrolo[2,3-d]pyrimidin-5-yl)pyrazolo[1,5-a]pyridin-3-yl)(piperidin-1-yl)methanone], the EC50 is 259 nM. Then `CN1CCN(C(=O)c2cnn3ccc(-c4c[nH]c5ncnc(NCC6CC6)c45)cc23)CC1` [Compound 1244, (5-(4-((cyclopropylmethyl)amino)-7H-pyrrolo[2,3-d]pyrimidin-5-yl)pyrazolo[1,5-a]pyridin-3-yl)(4-methylpiperazin-1-yl)methanone], with 494 nM; and `CN(C)C(=O)c1cnn2ccc(-c3c[nH]c4nc(C5CC5)ncc34)cc12` [Compound 1245, 5-(2-Cyclopropyl-7H-pyrrolo[2,3-d]pyrimidin-5-yl)-N,N-dimethylpyrazolo [1,5-a]pyridine-3-carboxamide], with 182 nM; and `CN(C(=O)c1cnn2ccc(-c3c[nH]c4nc(C5CC5)ncc34)cc12)C1CC(F)(F)C1` [Compound 1379, 5-(2-Cyclopropyl-7H-pyrrolo[2,3-d]pyrimidin-5-yl)-N-(3,3-difluorocyclobutyl)-N-methylpyrazolo[1,5-a]pyridine-3-carboxamide], with 79.8 nM. Then `O=C(NCC1CC(F)(F)C1)c1cnn2ccc(-c3c[nH]c4nc(C5CC5)ncc34)cc12` [Compound 1422, 5-(2-Cyclopropyl-7H-pyrrolo[2,3-d]pyrimidin-5-yl)-N-((3,3-difluorocyclobutyl)methyl)pyrazolo[1,5-a]pyridine-3-carboxamide], with 6 nM; and `CC(C)Nc1ncc2c(-c3ccn4ncc(C(=O)NCC5CC(F)(F)C5)c4c3)c[nH]c2n1` [Compound 1428, N-((3,3-Difluorocyclobutyl)methyl)-5-(2-(isopropylamino)-7H-pyrrolo[2,3-d]pyrimidin-5-yl)pyrazolo[1,5-a]pyridine-3-carboxamide], with 11.4 nM.

In the case of `CO[C@H]1CC[C@H](NC(=O)c2cnn3ccc(-c4c[nH]c5nc(C6CC6)ncc45)cc23)CC1` [Compound 1465, 5-(2-Cyclopropyl-7H-pyrrolo[2,3-d]pyrimidin-5-yl)-N-(trans-4-methoxycyclohexyl)pyrazolo[1,5-a]pyridine-3-carboxamide], the EC50 turned out to be 6.7 nM. Then `CN1CCC(NC(=O)c2cnn3ccc(-c4c[nH]c5nc(N)ncc45)cc23)CC1` [Compound 1511, 5-(2-amino-7H-pyrrolo[2,3-d]pyrimidin-5-yl)-N-(1-methylpiperidin-4-yl)pyrazolo[1,5-a]pyridine-3-carboxamide], with 3.4 nM. Then `O=C(NC1CCOCC1)c1cnn2ccc(-c3c[nH]c4nc(C5CC5)ncc34)cc12` [Compound 1551, 5-(2-Cyclopropyl-7H-pyrrolo[2,3-d]pyrimidin-5-yl)-N-(tetrahydro-2H-pyran-4-yl)pyrazolo[1,5-a]pyridine-3-carboxamide], with 7.5 nM; and `CC(C)Cc1ncc2c(-c3ccn4nccc4n3)c[nH]c2n1` [Compound 1636, 2-Isobutyl-5-(pyrazolo[1,5-a]pyrimidin-5-yl)-7H-pyrrolo[2,3-d]pyrimidine], with 214 nM. Then `CC(C)(C)CNc1ncc2c(-c3ccn4nccc4n3)c[nH]c2n1` [Compound 1646, N-Neopentyl-5-(pyrazolo[1,5-a]pyrimidin-5-yl)-7H-pyrrolo[2,3-d]pyrimidin-2-amine], with 19.1 nM; and `CC(F)(F)CNc1ncc2c(-c3ccn4nccc4n3)c[nH]c2n1` [Compound 1649, N-(2,2-Difluoropropyl)-5-(pyrazolo[1,5-a]pyrimidin-5-yl)-7H-pyrrolo[2,3-d]pyrimidin-2-amine], with 5.9 nM. Regarding `FC(F)(F)CNc1ncc2c(-c3ccn4nccc4n3)c[nH]c2n1` [Compound 1650, 5-(Pyrazolo[1,5-a]pyrimidin-5-yl)-N-(2,2,2-trifluoroethyl)-7H-pyrrolo[2,3-d]pyrimidin-2-amine], the EC50 worked out at 19.8 nM. Then `C[C@@H](Nc1ncc2c(-c3ccn4nccc4n3)c[nH]c2n1)C(F)(F)F` [Compound 1651, (R)-5-(Pyrazolo[1,5-a]pyrimidin-5-yl)-N-(1,1,1-trifluoropropan-2-yl)-7H-pyrrolo[2,3-d]pyrimidin-2-amine], with 13.2 nM; and `C[C@H](Nc1ncc2c(-c3ccn4nccc4n3)c[nH]c2n1)C(F)(F)F` [Compound 1652, (S)-5-(Pyrazolo[1,5-a]pyrimidin-5-yl)-N-(1,1,1-trifluoropropan-2-yl)-7H-pyrrolo[2,3-d]pyrimidin-2-amine], with 103 nM; and `FC1(F)CCC(Nc2ncc3c(-c4ccn5nccc5n4)c[nH]c3n2)CC1` [Compound 1663, N-(4,4-Difluorocyclohexyl)-5-(pyrazolo[1,5-a]pyrimidin-5-yl)-7H-pyrrolo [2,3-d]pyrimidin-2-amine], with 9.2 nM. Then `CN1CCC(Nc2ncc3c(-c4ccn5nccc5n4)c[nH]c3n2)CC1` [Compound 1667, N-(1-Methylpiperidin-4-yl)-5-(pyrazolo[1,5-a]pyrimidin-5-yl)-7H-pyrrolo [2,3-d]pyrimidin-2-amine], with 19 nM; and `c1cc2nc(-c3c[nH]c4nc(NC5CCOCC5)ncc34)ccn2n1` [Compound 1669, 5-(Pyrazolo[1,5-a]pyrimidin-5-yl)-N-(tetrahydro-2H-pyran-4-yl)-7H-pyrrolo [2,3-d]pyrimidin-2-amine], with 6.1 nM; and `CC(C)(F)CNc1ncc2c(-c3ccn4ncc(F)c4n3)c[nH]c2n1` [Compound 1678, N-(2-Fluoro-2-methylpropyl)-5-(3-fluoropyrazolo[1,5-a]pyrimidin-5-yl)-7H-pyrrolo[2,3-d]pyrimidin-2-amine], with 21.1 nM. Then `C[C@@H](Nc1ncc2c(-c3ccn4ncc(F)c4n3)c[nH]c2n1)C(F)(F)F` [Compound 1679, (R)-5-(3-Fluoropyrazolo[1,5-a]pyrimidin-5-yl)-N-(1,1,1-trifluoropropan-2-yl)-7H-pyrrolo[2,3-d]pyrimidin-2-amine], with 92.9 nM; and `C[C@@H](Nc1ncc2c(-c3ccn4ncc(Cl)c4n3)c[nH]c2n1)C(F)(F)F` [Compound 1681, (R)-5-(3-Chloropyrazolo[1,5-a]pyrimidin-5-yl)-N-(1,1,1-trifluoropropan-2-yl)-7H-pyrrolo[2,3-d]pyrimidin-2-amine], with 98.8 nM.
